Results published in article PMC6222450, “Computer-Aided Studies for Novel Arylhydantoin 1,3,5-Triazine Derivatives as 5-HT6 Serotonin Receptor Ligands with Antidepressive-Like, Anxiolytic and Antiobesity Action In Vivo” (Molecules : A Journal of Synthetic Chemistry and Natural …, 2018).
Values joined by “and” are separate entries in the source; they are usually repeats but may differ in a detail not shown here. Equal entries are not always repeated.

What was measured:
HEK-293 cells = test: Toxicity in vitro, MTS test; type: cell-based; details: 72 h
Procedure: The preliminary evaluation of the safety profile for the most promising 5-HT6R ligands 6 and 26 was performed in vitro with the HEK-293 eukaryotic cell line. The compounds examined were dissolved in culture growth media and incubated with cells for 72 h. Next, the MTS test was applied to determine the viability of the cells. […] The reference cytostatic drug doxorubicin (DX) at the very low concentration 1 μM was also cytotoxic.
The ATCC CRL 1573 HEK-293 cells were seeded in 96-well plates (NuncTM) at a concentration of 1 × 10^4 cells/well in 200 μL in Dulbecco’s Modified Eagle’s Medium (Gibco®) supplemented with 10% fetal bovine serum (Gibco®), and cultured at 37 °C in an atmosphere containing 5% of CO2 for 24 h to reach 60% confluence. The 10 mM stock solutions of 5-HT6R ligands 6 and 26 in DMSO were diluted into fresh growth medium and added into the microplates at the final concentrations 0.1 μM –100 μM. […] The cytostatic drug doxorubicin (Sigma-Aldrich) at the concentration 1 μM was used as a reference. After 72 h of incubation 20 μL of CellTiter 96® AQueous Non-Radioactive Cell Proliferation Assay (MTS) (Promega®) was added to each well and the cells were incubated under the same conditions for 2 h. The absorbance of the samples was measured using a microplate reader EnSpire (PerkinElmer, Waltham, MA, USA) at 490 nm. Statistical significance was analyzed by GraphPad Prism™ software v. 5.01 (GraphPad Software, La Jolla, CA, USA) using One-way ANOVA and Bonferroni’s Multiple Comparison Post Test.

human serotonin 5-HT6R = target: T1, human serotonin 5-HT6R (Homo sapiens, UniProt P50406); test: Radioligand binding assay, 5-HT6R, [3H]-LSD displacement; details: human receptor stably expressed in HEK-293 cells; mean of at least two independent experiments; read-out: Ki 5-HT6 [3H]-LSD
T1 construct: expressed in transfected cells; host or cells: HEK-293
Procedure: Five selective radioligands were employed (Table 1).
Radioligand binding assays were used to determine the affinity of the synthesized compounds for human serotonin 5-HT6R, which were stably expressed in HEK-293 cells. […] Each compound was tested in triplicate at 7 to 8 different concentrations (10^−11 to 10^−4 M). The inhibition constants (Ki) were calculated using the Cheng–Prusoff equation [40], and the results are expressed as the mean of at least two independent experiments.

dopaminergic D2LR = target: T2, dopaminergic D2LR (Homo sapiens, UniProt P14416); test: Radioligand binding assay, D2LR, [3H]-Raclopride; details: human D2L receptor stably expressed in HEK-293 cells; read-out: Ki D2 [3H]-Raclopride
T2 construct: expressed in transfected cells; host or cells: HEK-293

5-HT1A = target: T3, 5-HT1A (Homo sapiens, UniProt P08908); test: Radioligand binding assay, 5-HT1A, [3H]-8-OH-DPAT; details: human receptor stably expressed in HEK-293 cells
T3 construct: expressed in transfected cells; host or cells: HEK-293
T3 sequence (P08908 1-422): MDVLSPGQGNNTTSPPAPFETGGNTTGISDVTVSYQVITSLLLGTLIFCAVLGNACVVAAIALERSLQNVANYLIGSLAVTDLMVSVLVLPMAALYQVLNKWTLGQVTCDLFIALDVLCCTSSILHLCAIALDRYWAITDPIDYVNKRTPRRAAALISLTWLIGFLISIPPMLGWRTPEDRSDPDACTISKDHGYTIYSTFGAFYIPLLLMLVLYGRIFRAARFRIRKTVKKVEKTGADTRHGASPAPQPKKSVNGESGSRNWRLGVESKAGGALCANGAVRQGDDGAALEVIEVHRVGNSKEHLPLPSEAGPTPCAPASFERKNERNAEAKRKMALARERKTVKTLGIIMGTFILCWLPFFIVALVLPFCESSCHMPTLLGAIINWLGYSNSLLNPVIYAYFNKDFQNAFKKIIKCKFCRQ

5-HT7bR = target: T4, 5-HT7bR (Homo sapiens, UniProt P34969); test: Radioligand binding assay, 5-HT7bR, [3H]-5-CT; details: human 5-HT7b receptor stably expressed in HEK-293 cells; read-out: Ki 5-HT7 [3H]-5-CT
T4 construct: expressed in transfected cells; host or cells: HEK-293

[1] = Body weight of non-obese rats fed palatable diet (model of excessive eating); type: in vivo, rat
Source text: In order to determine the anorectic activity of 6 or 26, the model of excessive eating was used. Male Wistar rats (170–190 g) were housed in a pair in plastic cages in constant temperature facilities exposed to a light-dark cycle. Water and food were available ad libitum. Two groups of 6 rats were fed with diets consisting of milk chocolate with nuts, cheese, salted peanuts, and 7% condensed milk and also had access to standard feed (Labofeed B, Morawski Manufacturer Feed, Kcynia, Poland) and water ad libitum for 3 weeks. Palatable control group (palatable diet + vehicle) received vehicle (1% Tween 80, intraperitoneally), while palatable test group (palatable diet + 6 or palatable + 26) was injected (intraperitoneally) with 6 or 26 at the dose of 5 mg/kg b.w. dissolved in 1% Tween 80 (1 mL/kg). Body weights were measured daily, immediately prior to administration of drugs.
The palatable diet contained: 100 g peanuts—614 kcal; 100 mL condensed milk—131 kcal; 100 g milk chocolate—529 kcal; 100g cheese (Greek type)—270 kcal. The standard diet contained 100 g feed—280 kcal.

[2] = Body weight of non-obese rats fed only standard diet; type: in vivo, rat; details: rats consuming standard feed, 5 mg/kg b.w. i.p.
Procedure: Male Wistar rats (170–190 g) were housed in a pair in plastic cages in constant temperature facilities exposed to a light-dark cycle. Control group (standard diet + vehicle) received vehicle (1% Tween 80, intraperitoneally), while the test group (standard diet + 6 or standard diet + 26) was injected (intraperitoneally) with 6 or 26 at the dose of 5 mg/kg b.w. dissolved in 1% Tween 80 (1 mL/kg). Body weights were measured daily immediately prior to administration of drugs.

Lipophilicity by RP-TLC = type: physicochemical; details: RP-18 TLC, water/methanol, extrapolated to 100% water
Procedure: For comparison, the active arylmethyl-triazine compounds previously found (1–3) were also examined. Stationary phase RP-18 and mixtures of water/methanol […] as a mobile phase were employed. RM values were calculated from the RF data obtained. […] The regression coefficients (r^2) determined for all compounds were higher than 0.95. On the basis of the linear relationship between RM values and the volume fraction of methanol, values of RM0 in the systems analyzed corresponding to 100% of water were obtained by extrapolation. RM0 values received for the compounds tested ranged from 3.14 to 4.49 (Figure 6).
The mobile phases were prepared by mixing the respective amounts of water and organic modifier (methanol) in a range from 40 to 90% (v/v) in 5% increments. TLC was performed on Silica gel 60RP-18 F254 plates (7 × 10 cm) plates (Merck, Darmstadt, Germany). Methanol was used to prepare the solutions of the substances. Solutions (10 µL) of the analyzed compounds were applied to the plates as 5 mm bands, 10 mm apart and 10 mm from the lower edge and sides of the plates, by using Linomat V applicator (Camag, Basel, Switzerland). The vertical chamber (Sigma–Aldrich, St. Louis, MI, USA), 20 × 10 × 18 cm in size, was saturated with mobile phase for 20 min. Development was carried out over 9 cm from the starting line at a temperature of 20 °C. Next, the plates were dried at room temperature, and the spots were observed under ultraviolet light at 254 nm and/or 366 nm (UV lamp, Camag, Basel, Switzerland). In each case, sharp and symmetric spots without a tendency for tailing were obtained. Each experiment was run in triplicate and mean RF (retardation factor) values were calculated.
Starting from the RF values, the RM parameters were computed as described in the formula:RM = log(1/RF − 1)
The linear correlations between the RM values of the substances and the concentration of methanol in mobile phases were calculated for each compound with the Soczewiński-Wachtmeister equation [22]:RM = RM0 + aC where C is the concentration of the organic modifier (in %) in the mobile phase, a is the slope, and RM0 is the […].

T1 sequence (P50406 whole entry): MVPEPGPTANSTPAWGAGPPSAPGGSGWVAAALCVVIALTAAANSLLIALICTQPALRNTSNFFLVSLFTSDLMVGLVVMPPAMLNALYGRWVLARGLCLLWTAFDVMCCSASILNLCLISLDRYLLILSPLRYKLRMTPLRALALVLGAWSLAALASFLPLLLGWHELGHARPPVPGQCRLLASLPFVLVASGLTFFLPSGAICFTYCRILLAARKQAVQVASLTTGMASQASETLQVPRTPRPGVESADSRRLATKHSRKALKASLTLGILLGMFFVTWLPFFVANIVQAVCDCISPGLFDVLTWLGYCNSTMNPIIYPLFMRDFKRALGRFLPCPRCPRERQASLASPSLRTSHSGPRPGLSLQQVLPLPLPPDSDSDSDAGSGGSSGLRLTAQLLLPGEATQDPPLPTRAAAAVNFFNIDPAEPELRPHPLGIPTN
T2 sequence (P14416 whole entry): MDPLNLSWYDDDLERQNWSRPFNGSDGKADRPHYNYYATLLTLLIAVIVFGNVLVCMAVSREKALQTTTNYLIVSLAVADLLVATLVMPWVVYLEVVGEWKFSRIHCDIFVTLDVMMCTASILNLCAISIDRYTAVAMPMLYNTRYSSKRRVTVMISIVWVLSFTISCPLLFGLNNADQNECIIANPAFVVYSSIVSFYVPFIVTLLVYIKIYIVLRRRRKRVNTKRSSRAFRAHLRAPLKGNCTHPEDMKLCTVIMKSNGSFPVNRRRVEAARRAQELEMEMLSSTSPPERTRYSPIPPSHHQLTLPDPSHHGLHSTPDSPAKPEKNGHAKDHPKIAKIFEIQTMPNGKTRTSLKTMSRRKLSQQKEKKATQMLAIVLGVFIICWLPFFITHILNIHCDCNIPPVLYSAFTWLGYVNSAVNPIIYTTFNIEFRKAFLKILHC
T4 sequence (P34969 1-432 limits assumed): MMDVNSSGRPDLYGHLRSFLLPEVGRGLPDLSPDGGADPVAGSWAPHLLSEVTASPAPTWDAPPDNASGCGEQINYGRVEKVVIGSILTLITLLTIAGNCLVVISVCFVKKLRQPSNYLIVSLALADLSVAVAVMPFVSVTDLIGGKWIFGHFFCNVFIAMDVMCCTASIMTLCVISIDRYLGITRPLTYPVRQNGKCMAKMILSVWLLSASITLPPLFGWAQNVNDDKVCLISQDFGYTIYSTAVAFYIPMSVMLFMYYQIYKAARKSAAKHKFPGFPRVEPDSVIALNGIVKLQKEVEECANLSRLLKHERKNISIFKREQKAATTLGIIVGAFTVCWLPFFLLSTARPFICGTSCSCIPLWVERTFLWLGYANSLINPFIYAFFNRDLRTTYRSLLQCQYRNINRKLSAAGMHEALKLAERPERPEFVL

| Ki (human serotonin 5-HT6R) | Ki (dopaminergic D2LR) [µM] | Ki (5-HT1A) [µM] | Ki (5-HT7bR) [µM] | RM0 (Lipophilicity by RP-TLC) | SMILES | viability of HEK-293 cells (HEK-293 cells; 1 μM) | day of experiment from which groups differed significantly ([1]; rats fed palatable feed, 5 mg/kg b.w. i.p. daily) [days] | weight gain vs control group ([1]; rats fed palatable feed, 5 mg/kg b.w. i.p., 21 days) | body weight vs control animals fed standard feed ([1]; treated rats with access to preferential feed, 5 mg/kg b.w. i.p.) | effect on body weight [2] | toxicity in HEK-293 cells (HEK-293 cells; 0.1 μM–100 μM) | viability of HEK-293 cells (HEK-293 cells; 100 μM, *** p < 0.001) |
| --- | --- | --- | --- | --- | --- | --- | --- | --- | --- | --- | --- | --- |
| – | – | – | – | – | COc1cccc2c1C(=O)c1c(O)c3c(c(O)c1C2=O)C[C@@](O)(C(=O)CO)C[C@@H]3O[C@H]1C[C@H](N)[C@H](O)[C@H](C)O1 [doxorubicin, reference compound] | cytotoxic | – | – | – | – | – | – |
| < 200 nM and 127 nM | 4.1 | 23.3 | 3.71 | 3.39 | CN1CCN(c2nc(N)nc(CN3C(=O)N(Cc4ccc(Cl)cc4)C(C)(C)C3=O)n2)CC1 [Compound 6, 1-(4-Chlorobenzyl)-3-((4-amino-6-(4-methylpiperazin-1-yl)-1,3,5-triazin-2-yl)methyl)-5,5-dimethylimidazolidine-2,4-dione] | – | 16 | significantly less weight gain | differed significantly | No effects on body weight | low | statistically significant decrease of viability |
